The compounds below were run on HSP-90 (heat shock protein 90) (assay: Determination of affinity for HSP-90 (elution from purine affinity column, SDS-PAGE densitometry)). Conditions: elution of HSP-90 from purine affinity column with 20, 100 and 500 μM test compound.
Type: binding
Parameters: key: +++: very high; ++: high; +: moderate
Procedure: Affinity of test compounds for HSP-90 was determined as follows: Protein mixtures obtained from a variety of organ tissues (for example: spleen, liver and lung) were reversibly bound to a purine affinity column to capture purine-binding proteins, especially HSP-90. The purine affinity column was washed several times, and then eluted with 20 μM, 100 μM, and 500 μM of test compound. Compounds of Formula I elute HP-90 in a dose-dependent manner vs. a control elution using dimethylsulfoxide. The elution profile of Formula I compounds was determined by 1-dimensional SDS polyacrylamide gel electrophoresis. Gels were stained with a fluorescent stain such as sypro ruby (a highly sensitive fluorescent protein stain that can readily detect less than 1 fmol of total protein, i.e., less than 0.04 ng for a 40 kDa protein) or silver nitrate. The gels were imaged using a standard flat bed gel imager and the amount of protein estimated by densitometry. The percent of HSP-90 protein eluted from the column at each concentration was determined and IC50 values were calculated from these estimates. The identity of a band containing HSP-90 was determined by protein sequencing using mass spectroscopy.
Compounds of the invention are inhibitors of HSP-90 (heat shock protein 90). Several exemplary compounds useful in the methods of the invention are listed below.
For `CC1(C)CC(=O)c2c(C(F)(F)F)nn(-c3ccc(C(N)=O)c(NCC(O)CO)c3)c2C1` (stereo not drawn) [Compound 30, 2-(2,3-Dihydroxy-propylamino)-4-(6,6-dimethyl-4-oxo-3-trifluoromethyl-4,5,6,7-tetrahydro-indazol-1-yl)-benzamide], the “relative binding affinity to HSP-90” value was “++”.

Each compound was assayed on PC-3 cell proliferation (assay: Cell proliferation assay (WST-1), PC-3). Conditions: Homo sapiens; PC-3 cells, WST-1 readout; read-out: inhibitory activity against PC-3 cell proliferation (IC50 range).
Type: cell-based
Procedure: A panel of cancer cell lines was obtained from the DCTP Tumor Repository, National Cancer Institute (Frederick, Md.) or ATCC (Rockville, Md.). Cell cultures were maintained in Hyclone RPMI 1640 medium (Logan, Utah) supplemented with 10% fetal bovine serum and 20 mM HEPES buffer, final pH 7.2, at 37° C. with a 5% CO2 atmosphere. Cultures were maintained at sub-confluent densities. Human umbilical vein endothelial cells (HUVEC) were purchased from Clonetics, a division of Cambrex (Walkersville, Md.). Cultures were established from cryopreserved stocks using Clonetics EGM-2 medium supplemented with 20 mM HEPES, final pH 7.2, at 37° C. with a 5% CO2 atmosphere.
For proliferation assays, cells were seeded with the appropriate medium into 96 well plates at 1,000-2,500 cells per well, depending on the cell line, and were incubated overnight. The following day, test compound, DMSO solution (negative control), or Actinomycin D (positive control) was added to the appropriate wells as 10× concentrated stocks prepared in phosphate buffered saline. The cell plates were then incubated for an additional 2-5 days, depending on the cell line, to allow proliferation to occur. To measure cell density, 50 μL of WST-1 solution (Roche Applied Science, Ind.) diluted 1:5 in phosphate buffered saline was added to each well, and the cells incubated for an additional 1-5 hrs., again depending on the cell line. Optical density was determined for each well at […] using a Tecan GeniosPro plate reader (RTP, NC). The percentage of cell growth was determined by comparing the cell growth in the presence of test compounds to the cells treated with DMSO vehicle (control, 100% growth) and cells treated with Actinomycin D (10 μM, 0% growth). […]
`COCCNc1cc(-n2cc(C)c3c2CC(C)(C)CC3=O)ccc1C(N)=O` [Compound 5, 2-(2-Methoxy-ethylamino)-4-(3,6,6-trimethyl-4-oxo-4,5,6,7-tetrahydro-indol-1-yl)-benzamide] gave an IC50 of 500 to 5000 nM.
`COc1cc(Nc2cc(-n3nc(C)c4c3CC(C)(C)CC4=O)ccc2C(N)=O)cc(OC)c1OC` [Compound 19, 4-(6,6-Dimethyl-4-oxo-3-methyl-4,5,6,7-tetrahydro-indazol-1-yl)-2-(3,4,5-trimethoxyanilino)-benzamide] showed an IC50 of less than 500 nM.
`COc1ccc(Nc2cc(-n3nc(C)c4c3CC(C)(C)CC4=O)ccc2C(N)=O)cc1OCCN(C)C` [Compound 27, 2-[3-(2-Dimethylamino-ethoxy)-4-methoxy-phenylamino]-4-(3,6,6-trimethyl-4-oxo-4,5,6,7-tetrahydro-indazol-1-yl)-benzamide] gave an IC50 of less than 500 nM.
Compound `CC1(C)CC(=O)c2c(C(F)(F)F)nn(-c3ccc(C(N)=O)c(NC4CCSCC4)c3)c2C1` [Compound 31, 4-(6,6-Dimethyl-4-oxo-3-trifluoromethyl-4,5,6,7-tetrahydro-indazol-1-yl)-2-(tetrahydro-thiopyran-4-ylamino)-benzamide] has an IC50 of less than 500 nM.
Work on `C#Cc1cccc(Nc2cc(-n3c(C)cc4c3CC(C)(C)CC4=O)ccc2C(N)=O)c1` [Compound 72, 2-[(3-ethynylphenyl)amino]-4-(2,6,6-trimethyl-4-oxo-4,5,6,7-tetrahydro-1H-indol-1-yl)benzamide] yielded an IC50 of 500 to 5000 nM.
In the case of `Cc1cc2c(n1-c1ccc(C(N)=O)c(Nc3ccccc3)c1)CCCC2=O` [Compound 74, 2-anilino-4-(2-methyl-4-oxo-4,5,6,7-tetrahydro-1H-indol-1-yl)benzamide], the IC50 is reported as 5000 to 50000 nM.
`COc1cc(Nc2cc(-n3c(C)c(Cl)c4c3CC(C)(C)CC4=O)ccc2C(N)=O)cc(OC)c1OC` [Compound 81, 4-(3-chloro-2,6,6-trimethyl-4-oxo-4,5,6,7-tetrahydro-1H-indol-1-yl)-2-[(3,4,5-trimethoxyphenyl)amino]benzamide] gave an IC50 of less than 500 nM.
For `Cc1cc2c(n1-c1ccc(C(N)=O)c(Nc3ccc(O)cc3)c1)CC(C)(C)CC2=O` [Compound 82, 2-[(4-hydroxyphenyl)amino]-4-(2,6,6-trimethyl-4-oxo-4,5,6,7-tetrahydro-1H-indol-1-yl)benzamide], the IC50 was 500 to 5000 nM.
Compound `Cc1cc(Nc2cc(-n3c(C)cc4c3CC(C)(C)CC4=O)ccc2C(N)=O)no1` [Compound 84, 2-[(5-methylisoxazol-3-yl)amino]-4-(2,6,6-trimethyl-4-oxo-4,5,6,7-tetrahydro-1H-indol-1-yl)benzamide] has an IC50 of 500 to 5000 nM.
Compound `COc1ccc(Nc2cc(-n3c(C)cc4c3CC(C)(C)CC4=O)ccc2C(N)=O)cc1OCCCN(C)C` [Compound 93, 2-({3-[3-(dimethylamino)propoxy]-4-methoxyphenyl}amino)-4-(2,6,6-trimethyl-4-oxo-4,5,6,7-tetrahydro-1H-indol-1-yl)benzamide] has an IC50 of 500 to 5000 nM.
With `Cc1cn(-c2ccc(C(N)=O)c(Nc3ccncc3)c2)c2c1C(=O)CC(C)(C)C2` [Compound 97, 2-(pyridin-4-ylamino)-4-(3,6,6-trimethyl-4-oxo-4,5,6,7-tetrahydro-1H-indol-1-yl)benzamide] the IC50 was less than 500 nM.
Work on `Cc1nn(-c2ccc(C(N)=O)c(NCC3CC3)c2)c2c1C(=O)CC(C)(C)C2` [Compound 100, 2-[(cyclopropylmethyl)amino]-4-(3,6,6-trimethyl-4-oxo-4,5,6,7-tetrahydro-1H-indazol-1-yl)benzamide] yielded an IC50 of less than 500 nM.
In the case of `COCC(=O)Nc1cc(-n2cc(C)c3c2CC(C)(C)CC3=O)ccc1C(N)=O` [Compound 101, 2-[(methoxyacetyl)amino]-4-(3,6,6-trimethyl-4-oxo-4,5,6,7-tetrahydro-1H-indol-1-yl)benzamide], the IC50 is reported as 500 to 5000 nM.
Compound `COc1ccc(Nc2cc(-n3cc(C)c4c3CC(C)(C)CC4=O)ccc2C(N)=O)cc1OCCN(C)C` [Compound 104, 2-({3-[2-(dimethylamino)ethoxy]-4-methoxyphenyl}amino)-4-(3,6,6-trimethyl-4-oxo-4,5,6,7-tetrahydro-1H-indol-1-yl)benzamide] has an IC50 of less than 500 nM.
`Cc1nn(-c2ccc(C(N)=O)c(N[C@H](C)c3ccccc3)c2)c2c1C(=O)CC(C)(C)C2` [Compound 106, 2-{[(1R)-1-phenylethyl]amino}-4-(3,6,6-trimethyl-4-oxo-4,5,6,7-tetrahydro-1H-indazol-1-yl)benzamide] showed an IC50 of 500 to 5000 nM.
`Cc1cn(-c2ccc(C(N)=O)c(Nc3ccnc(OCCN(C)C)c3)c2)c2c1C(=O)CC(C)(C)C2` [Compound 108, 2-({2-[2-(dimethylamino)ethoxy]pyridin-4-yl}amino)-4-(3,6,6-trimethyl-4-oxo-4,5,6,7-tetrahydro-1H-indol-1-yl)benzamide] gave an IC50 of less than 500 nM.
`CC1(C)CC(=O)c2c(-c3ccccc3)cn(-c3ccc(C(N)=O)cc3)c2C1` [Compound 110, 4-(6,6-dimethyl-4-oxo-3-phenyl-4,5,6,7-tetrahydro-1H-indol-1-yl)benzamide] was tested, and the IC50 was 5000 to 50000 nM.
`Cc1cn(-c2ccc(C(N)=O)c(NCCNC(=O)CO)c2)c2c1C(=O)CC(C)(C)C2` [Compound 112, 2-{[2-(glycoloylamino)ethyl]amino}-4-(3,6,6-trimethyl-4-oxo-4,5,6,7-tetrahydro-1H-indol-1-yl)benzamide] gave an IC50 of 5000 to 50000 nM.
In the case of `Cc1nn(-c2ccc(C(N)=O)c(NCCS(C)(=O)=O)c2)c2c1C(=O)CC(C)(C)C2` [Compound 113, 2-{[2-(methylsulfonyl)ethyl]amino}-4-(3,6,6-trimethyl-4-oxo-4,5,6,7-tetrahydro-1H-indazol-1-yl)benzamide], the IC50 is reported as less than 500 nM.
Compound `COc1ccc(Nc2cc(-n3nc(C)c4c3CC(C)(C)CC4=O)ccc2C(N)=O)cc1` [Compound 114, 2-[(4-methoxyphenyl)amino]-4-(3,6,6-trimethyl-4-oxo-4,5,6,7-tetrahydro-1H-indazol-1-yl)benzamide] has an IC50 of less than 500 nM.
`CC1(C)CC(=O)c2c(C(F)F)nn(-c3ccc(C(N)=O)c(NC4CC=CC4)c3)c2C1` [Compound 116, 2-(cyclopent-3-en-1-ylamino)-4-[3-(difluoromethyl)-6,6-dimethyl-4-oxo-4,5,6,7-tetrahydro-1H-indazol-1-yl]benzamide] was tested, and the IC50 was less than 500 nM.
`Cc1nn(-c2ccc(C(N)=O)c(Nc3cccc([S+](C)[O-])c3)c2)c2c1C(=O)CC(C)(C)C2` (stereo not drawn) [Compound 123, 2-{[3-(methylsulfinyl)phenyl]amino}-4-(3,6,6-trimethyl-4-oxo-4,5,6,7-tetrahydro-1H-indazol-1-yl)benzamide] was tested, and the IC50 was 500 to 5000 nM.
In the case of `CC1(C)CC(=O)c2c(C(F)(F)F)nn(-c3ccc(C(N)=O)c(NC4CCN(S(C)(=O)=O)CC4)c3)c2C1` [Compound 124, 4-[6,6-dimethyl-4-oxo-3-(trifluoromethyl)-4,5,6,7-tetrahydro-1H-indazol-1-yl]-2-{[1-(methylsulfonyl)piperidin-4-yl]amino}benzamide], the IC50 is reported as less than 500 nM.
`Cc1nn(-c2ccc(C(N)=O)c(NC3CCN(C(=O)CCN4CCOCC4)CC3)c2)c2c1C(=O)CC(C)(C)C2` [Compound 127, 2-{[1-(3-morpholin-4-ylpropanoyl)piperidin-4-yl]amino}-4-(3,6,6-trimethyl-4-oxo-4,5,6,7-tetrahydro-1H-indazol-1-yl)benzamide] was tested, and the IC50 was less than 500 nM.
With `Cc1nn(-c2ccc(C(N)=O)c(NC3CCN(C(=O)CN)CC3)c2)c2c1C(=O)CC(C)(C)C2` [Compound 129, 2-[(1-glycylpiperidin-4-yl)amino]-4-(3,6,6-trimethyl-4-oxo-4,5,6,7-tetrahydro-1H-indazol-1-yl)benzamide] the IC50 was 500 to 5000 nM.
With `CN(C)S(=O)(=O)CCNc1cc(-n2nc(C(F)(F)F)c3c2CC(C)(C)CC3=O)ccc1C(N)=O` [Compound 136, 2-({2-[(dimethylamino)sulfonyl]ethyl}amino)-4-[6,6-dimethyl-4-oxo-3-(trifluoromethyl)-4,5,6,7-tetrahydro-1H-indazol-1-yl]benzamide] the IC50 was 500 to 5000 nM.

Reference: US7928135B2, “Benzene, pyridine, and pyridazine derivatives” (Serenex, Inc., priority 2005, dated 2011)
